Results reported in the C3SDB collision cross section collection.
Values joined by “and” are separate entries in the source; they are usually repeats but may differ in a detail not shown here. Equal values may be shown once.

Experiments:
[1] = [M-H]-; instrument: DT; stepped-field
[2] = instrument: DT, single field, calibrated with Agilent tune mix (Agilent)
[3] = instrument: DT, single field
[4] = [M+H]+; instrument: TW; calibrated with phosphatidylcholines (ESI+) and phosphatidylethanolamines (ESI-)
[5] = [M+Na]+; instrument: DT; stepped-field

collision cross section (N2) ([2]; [M+NH4]+)	collision cross section (N2) ([3]; [M+NH4]+)	collision cross section (N2) ([3]; [M+Na]+)	SMILES	also measured
			CCCCCCCC/C=C\CCCCCCCC(=O)O[C@H](COC(=O)CCCCCCCCCCCCCCC)COP(=O)(O)OC[C@H](N)C(=O)O [PS(16:0/18:1)]	collision cross section (N2) [1]: 278.8 Å²
			CCCCCCCCCCCCCCCCCCCC(=O)O[C@H](COC(=O)CCCCCCCCCCC)COP(=O)([O-])OCC[N+](C)(C)C [PC(32:0)]	collision cross section (N2) ([2]; [M+H]+): 283.4 Å²; collision cross section (N2) ([3]; [M+H]+): 282.65 Å² and 284.23 Å²; collision cross section (N2) [4]: 281 Å²
			CCCCCCCCCCCCCCCC(=O)OC[C@H](COP(=O)([O-])OCC[N+](C)(C)C)OC(=O)CCCCCCCCCCCCC [PC(30:0)]	collision cross section (N2) ([2]; [M+H]+): 276.8 Å²; collision cross section (N2) ([3]; [M+H]+): 276.5 Å² and 277.83 Å²
			CCCCCCCCCCCCC=CC[C@@H](O)[C@H](COP(=O)([O-])OCC[N+](C)(C)C)NC(=O)CC=CCCCCCCCCCCCCCCCCCC [SM(40:2)]	collision cross section (N2) ([2]; [M+H]+): 298.4 Å²; collision cross section (N2) ([3]; [M+H]+): 298.58 Å²; collision cross section (N2) [5]: 301.7 Å²
319.5 Å²	318.08 Å² and 320.09 Å² and 324.43 Å²	319.39 Å²	CCCCC/C=C\C/C=C\C/C=C\C/C=C\CCCC(=O)OC[C@@H](COC(=O)CCCCCCCCCCCCCC)OC(=O)CCCCCCCCCCCCCCCCC [TG(53:4)]	
			CCCCCCCCCCCCC=CC[C@@H](O)[C@H](COP(=O)([O-])OCC[N+](C)(C)C)NC(=O)CCCCCCCCCCCCC [SM(32:1)]	collision cross section (N2) ([2]; [M+H]+): 276.6 Å²; collision cross section (N2) ([3]; [M+H]+): 275.46 Å²
304.8 Å²	304.89 Å² and 307.09 Å²	304.27 Å² and 306.32 Å²	CCCCC/C=C\C/C=C\C/C=C\CCCCCCCCC(=O)OC[C@@H](COC(=O)CCCCCCCCCCCC)OC(=O)CCCCCCCCCCCC [TG(48:3)]	
	265.29 Å² and 266.85 Å²		CC/C=C\C/C=C\C/C=C\C/C=C\C/C=C\CCCCCC(=O)O[C@@H](CO)COC(=O)CCCCCCCCCCCC [DG(35:5)]	
313 Å²		311.82 Å² and 313.77 Å²	CCCCCCCCC/C=C\CCCCCCCC(=O)OC[C@@H](COC(=O)CCCCCCCCCCCCCC)OC(=O)CCCCCCCCCCCCCC [TG(49:1)]	
	296.47 Å² and 298.81 Å² and 298.68 Å²	295.37 Å² and 297.74 Å²	CCCCCCCC/C=C\CCCCCCCC(=O)OC[C@@H](COC(=O)CCCCCCCCCCCC)OC(=O)CCCCCCCCCCCC [TG(44:1)]	
	321.8 Å² and 324.34 Å² and 326.13 Å²	320.63 Å² and 322.94 Å²	CCCCC/C=C\C/C=C\C/C=C\C/C=C\CCCC(=O)OC[C@@H](COC(=O)CCCCCCCCCCCCC)OC(=O)CCCCCCCCCCCCCCCCCCC [TG(54:4)]	
332.9 Å²	336.68 Å² and 339.26 Å²		CCCCC/C=C\C/C=C\CCCCCCCCCCCC(=O)OC[C@@H](COC(=O)CCCCCCCCCCCC)OC(=O)CCCCCCCCC/C=C\CCCCCCCCCC [TG(57:3)]	
309.5 Å²		308.43 Å² and 310.33 Å² and 312.33 Å²	CCCCC/C=C\C/C=C\C/C=C\C/C=C\CCCCCC(=O)OC[C@@H](COC(=O)CCCCCCCCCCCCC)OC(=O)CCCCCCCCCCCCC [TG(50:4)]	
			CCCCCCCCCCCCC=CC[C@@H](O)[C@H](COP(=O)([O-])OCC[N+](C)(C)C)NC(=O)CCCCCCCCCCCCCCC [SM(34:1)]	collision cross section (N2) ([2]; [M+HCOO]-): 280.9 Å²; collision cross section (N2) ([2]; [M+H]+): 283.9 Å²; collision cross section (N2) ([3]; [M+H]+): 281.13 Å²; collision cross section (N2) [5]: 285.1 Å²
310.5 Å²		309.35 Å² and 311.09 Å²	CCCC/C=C\CCCCCCCC(=O)OC[C@H](COC(=O)CCCCCCCCCCCCCCCCCCCC)OC(=O)CCCCCCC/C=C\CCCC [TG(49:2)]	
337.8 Å²	341.17 Å² and 343.91 Å² and 338.53 Å²		CCCCCCCCCC/C=C\CCCCCCCCCC(=O)OC[C@@H](COC(=O)CCCCCCCCCCCCC)OC(=O)CCCCCCCCC/C=C\CCCCCCCCCC [TG(58:2)]	
	333.74 Å²		CC/C=C\C/C=C\C/C=C\C/C=C\C/C=C\C/C=C\CCC(=O)OC[C@@H](COC(=O)CCCCCCCCCCCCCCC)OC(=O)CCCCCCCCCCCCCCCCCCC [TG(58:6)]	
	331.43 Å²		CCCCCCCCCCCCCCCCCCCCC(=O)OC[C@@H](COC(=O)CCCCCCCCCCC)OC(=O)CCCCCCCCCCCCCCCCCCCC [TG(54:0)]	
328.3 Å²		326.57 Å² and 325 Å²	CC/C=C\C/C=C\C/C=C\C/C=C\C/C=C\CCCCCC(=O)OC[C@@H](COC(=O)CCCCCCC/C=C\CCCCC)OC(=O)CCCCCCCCCCCCCCCCCC [TG(56:6)]	
	344.73 Å² and 347.66 Å² and 343.58 Å²		CCCCCC/C=C\CCCCCCCC(=O)OC[C@H](COC(=O)CCCCCCCCC/C=C\CCCCCCCCCC)OC(=O)CCCCCCCCC/C=C\CCCCCCCCCC [TG(60:3)]	
		327.06 Å² and 327.86 Å²	CCCC/C=C\C/C=C\CCCCCCCC(=O)OC[C@H](COC(=O)CCCCCCCCC/C=C\CCCCCCCCCC)OC(=O)CCCCCCC/C=C\C/C=C\CCCC [TG(56:5)]	
			CCCCCCCCCCCCC=CC[C@@H](O)[C@H](COP(=O)([O-])OCC[N+](C)(C)C)NC(=O)CCCCCCCCCCCCCCCCC [SM(36:1)]	collision cross section (N2) ([2]; [M+HCOO]-): 286.4 Å²; collision cross section (N2) ([2]; [M+H]+): 289.1 Å²; collision cross section (N2) ([2]; [M+Na]+): 290 Å²; collision cross section (N2) ([3]; [M+H]+): 286.91 Å²; collision cross section (N2) [5]: 292.4 Å²
318 Å²	317.23 Å² and 320 Å²	316.19 Å²	CC/C=C\C/C=C\C/C=C\C/C=C\CCCCC(=O)OC[C@@H](COC(=O)CCCCCCCCCCCCCCCCC)OC(=O)CCCC/C=C\C/C=C\C/C=C\CCCCC [TG(54:7)]	
		319.25 Å² and 320.86 Å² and 321.71 Å²	CCCCCCCC/C=C\CCCCCCCCCC(=O)OC[C@@H](COC(=O)CCCCCCCCCCC)OC(=O)CCCCCCCCC/C=C\CCCCCCCC [TG(52:2)]	
334.6 Å²	338.57 Å² and 340.8 Å²		CCCCCCCCCC/C=C\CCCCCCCCCC(=O)OC[C@@H](COC(=O)CCCCCCCCCCCC)OC(=O)CCCCCCCCC/C=C\CCCCCCCCCC [TG(57:2)]	
297.1 Å²	297.58 Å² and 299.43 Å²	297 Å² and 298.89 Å²	CCCCC/C=C\C/C=C\C/C=C\CCCCCCCCC(=O)OC[C@@H](COC(=O)CCCCCCCCCCC)OC(=O)CCCCCCCCCCC [TG(46:3)]	
317.6 Å²		314.5 Å² and 316.78 Å²	CCCCC/C=C\C/C=C\C/C=C\C/C=C\CCCC(=O)OC[C@@H](COC(=O)CCCCCCCCCCCCC)OC(=O)CCCCCCCCCCCCCCCCC [TG(52:4)]	
340.7 Å²	342.69 Å² and 347.03 Å²		CCCCC/C=C\C/C=C\CCCCCCCCCC(=O)O[C@H](COC(=O)CCCCCCC/C=C\CCCCCCCC)COC(=O)CCCCCCCCCCC/C=C\CCCCCCCC [TG(60:4)]	
		302.69 Å² and 303.56 Å²	CCCCCCCCCCCCCCCCCCCCCC(=O)OC[C@@H](COC(=O)CCCCCCCCCCC)OC(=O)CCCCCCCCCCC [TG(46:0)]	
